Test results as given in ChEMBL document CHEMBL3994583, “Discovery of 4-[(5-arylidene-4-oxothiazolidin-3-yl)methyl]benzoic acid derivatives active as novel potent allosteric inhibitors of protein tyrosine phosphatase 1B: In silico studies and in vitro evaluation as insulinomimetic and anti-inflammatory agents” (Eur J Med Chem, 2017).
Calls of active or inactive are those of the source. The calls are words filed in the database; no cut-off is given here.

Tests used:
[1] = test system: HepG2; assay: Cytotoxicity against human HepG2 cells assessed as reduction in cell viability at 25 uM after 24 hrs by MTT assay; type: cell-based; settings: hepg2, 24 h
[2] = test system: NCTC-2544; assay: Anti-inflammatory activity in IFN-gamma and histamine-stimulated human NCTC-2544 cells assessed as reduction in COX-2 protein expression by Western blot method; type: functional, cell-based
[3] = target: T1, Tyrosine-protein phosphatase non-receptor type 1 (Homo sapiens, UniProt P18031); assay: Inhibition of full length recombinant human PTP1B using pNPP as substrate by spectrophotometric method
T1 sequence (P18031 whole entry): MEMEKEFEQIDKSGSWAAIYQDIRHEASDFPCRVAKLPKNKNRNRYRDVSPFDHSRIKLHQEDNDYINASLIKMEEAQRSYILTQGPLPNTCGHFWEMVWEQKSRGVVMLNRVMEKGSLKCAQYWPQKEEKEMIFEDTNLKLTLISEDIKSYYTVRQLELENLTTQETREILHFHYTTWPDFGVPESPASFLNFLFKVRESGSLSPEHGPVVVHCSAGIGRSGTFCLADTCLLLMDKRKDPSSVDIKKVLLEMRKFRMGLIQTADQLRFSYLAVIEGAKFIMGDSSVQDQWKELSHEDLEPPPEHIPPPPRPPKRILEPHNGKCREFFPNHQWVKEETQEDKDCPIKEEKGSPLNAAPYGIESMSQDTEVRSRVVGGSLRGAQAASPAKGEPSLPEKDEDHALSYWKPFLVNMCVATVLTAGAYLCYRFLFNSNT

[4] = target: T1, Tyrosine-protein phosphatase non-receptor type 1; assay: Competitive inhibition of full length recombinant human PTP1B assessed as enzyme-inhibitor complex using pNPP as substrate by double reciprocal plot method
[5] = target: T2, Tyrosine-protein phosphatase non-receptor type 1 (Mus musculus) (UniProt P35821); assay: Inhibition of PTP1B in mouse C2C12 cells assessed as increase in phosphorylation of IRbeta at Tyr1162/1163 residues at 50 uM after 30 mins by Western blot method; type: cell-based
T2 sequence (whole entry): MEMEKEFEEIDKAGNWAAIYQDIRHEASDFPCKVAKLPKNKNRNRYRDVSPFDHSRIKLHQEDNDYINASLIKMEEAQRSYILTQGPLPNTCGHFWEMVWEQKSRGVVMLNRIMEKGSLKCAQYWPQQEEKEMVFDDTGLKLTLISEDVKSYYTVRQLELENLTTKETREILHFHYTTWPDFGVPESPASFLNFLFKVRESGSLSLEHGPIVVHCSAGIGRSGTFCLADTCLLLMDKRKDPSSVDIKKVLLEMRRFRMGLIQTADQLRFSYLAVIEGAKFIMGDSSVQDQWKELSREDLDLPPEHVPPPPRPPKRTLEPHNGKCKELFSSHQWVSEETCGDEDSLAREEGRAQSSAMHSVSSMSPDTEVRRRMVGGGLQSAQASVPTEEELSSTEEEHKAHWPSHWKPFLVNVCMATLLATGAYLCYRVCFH

[6] = test system: NCTC-2544; assay: Anti-inflammatory activity in IFN-gamma and histamine-stimulated human NCTC-2544 cells assessed as reduction in iNOS protein expression by Western blot method; type: functional, cell-based
[7] = test system: NCTC-2544; assay: Cytotoxicity against human IFN-gamma and histamine-stimulated NCTC-2544 cells assessed as reduction in cell viability at 10 uM by MTT assay; type: cell-based; settings: nctc-2544, 10 µM
[8] = test system: C2C12; assay: Insulinomimetic effect in mouse C2C12 cells assessed as induction of [3H]2-deoxyglucose uptake at 50 uM preincubated for 30 mins followed by [3H]2-deoxyglucose addition measured after 15 mins by liquid scintillation counting method; type: functional, cell-based
[9] = target: T3, Tyrosine-protein phosphatase non-receptor type 1 (Homo sapiens) (UniProt P18031); assay: Inhibition of PTP1B in human HepG2 cells assessed as increase in phosphorylation of IRbeta at Tyr1162/1163 residues at 50 uM after 30 mins by Western blot method; type: cell-based
T3 sequence (whole entry): T1 sequence (P18031 whole entry)

[10] = test system: C2C12; assay: Cytotoxicity against mouse C2C12 cells assessed as reduction in cell viability after 24 hrs by MTT assay; type: cell-based; settings: c2c12, 24 h
[11] = target: T3, Tyrosine-protein phosphatase non-receptor type 1 (Homo sapiens); assay: Inhibition of PTP1B in human HepG2 cells assessed as increase in phosphorylation of Akt at Ser473 residue at 50 uM after 30 mins by Western blot method; type: cell-based
[12] = test system: NCTC-2544; assay: Anti-inflammatory activity in IFN-gamma and histamine-stimulated human NCTC-2544 cells assessed as reduction in ICAM-1 protein expression by Western blot method; type: functional, cell-based
[13] = target: T2, Tyrosine-protein phosphatase non-receptor type 1 (Mus musculus); assay: Inhibition of PTP1B in mouse C2C12 cells assessed as increase in phosphorylation of Akt at Ser473 residue at 50 uM after 30 mins by Western blot method; type: cell-based
[14] = target: T3, Tyrosine-protein phosphatase non-receptor type 1 (Homo sapiens); assay: Irreversible inhibition of full length recombinant human PTP1B assessed as recovery of enzyme activity up to 50 uM using pNPP as substrate preincubated for 1 hr followed by substrate addition by spectrophotometric method; set-up: scale not given: the % may be the effect or the level left
[15] = test system: NCTC-2544; assay: Cytotoxicity against human NCTC-2544 cells assessed as reduction in cell viability at 10 uM by MTT assay; type: cell-based; settings: nctc-2544, 10 µM
[16] = target: T3, Tyrosine-protein phosphatase non-receptor type 1 (Homo sapiens); assay: Competitive inhibition of full length recombinant human PTP1B assessed as enzyme-inhibitor complex up to 8 uM using pNPP as substrate by double reciprocal plot method
[17] = target: T3, Tyrosine-protein phosphatase non-receptor type 1 (Homo sapiens); assay: Reversible inhibition of full length recombinant human PTP1B assessed as recovery of enzyme activity up to 50 uM using pNPP as substrate preincubated for 1 hr followed by substrate addition by spectrophotometric method; set-up: scale not given: the % may be the effect or the level left
[18] = target: T3, Tyrosine-protein phosphatase non-receptor type 1 (Homo sapiens); assay: Mixed-type inhibition of full length recombinant human PTP1B assessed as enzyme-substrate-inhibitor complex at 3 to 9 uM using pNPP as substrate by double reciprocal plot method
[19] = target: T1, Tyrosine-protein phosphatase non-receptor type 1; assay: Mixed non-competitive inhibition of full length recombinant human PTP1B assessed as enzyme-substrate-inhibitor complex using pNPP as substrate by double reciprocal plot method
[20] = target: T3, Tyrosine-protein phosphatase non-receptor type 1 (Homo sapiens); assay: Competitive inhibition of full length recombinant human PTP1B assessed as enzyme-inhibitor complex up to 6 uM using pNPP as substrate by double reciprocal plot method
[21] = target: T3, Tyrosine-protein phosphatase non-receptor type 1 (Homo sapiens); assay: Inhibition of PTP1B in human HepG2 cells assessed as increase in phosphorylation of IRbeta at Tyr1162/1163 residues at 50 uM after 180 mins by Western blot method; type: cell-based
[22] = target: T3, Tyrosine-protein phosphatase non-receptor type 1 (Homo sapiens); assay: Inhibition of PTP1B in human HepG2 cells assessed as increase in phosphorylation of IRbeta at Tyr1162/1163 residues at 50 uM by Western blot method; type: cell-based; settings: TDE = time-dependent effect
[23] = target: T3, Tyrosine-protein phosphatase non-receptor type 1 (Homo sapiens); assay: Mixed-type inhibition of full length recombinant human PTP1B assessed as enzyme-substrate-inhibitor complex at 3 to 7.5 uM using pNPP as substrate by double reciprocal plot method

Compound | Activity [1] | Activity [2] | IC50 [3] | inhibition [5] | Activity [6] | Activity [7] | inhibition [9] | Activity [10] | inhibition [11] | Activity [12] | inhibition [13] | Activity [14] | Activity [15] | Activity [17] | further results
O=C(O)c1ccc(CN2C(=O)/C(=C/c3cccc(Oc4ccccc4)c3)S/C2=N\c2ccc(F)cc2)cc1 | Non-Toxic | Active | 10 µM | Active | Active | Non-Toxic | Active | Non-Toxic | Active | inactive | Active | 10 to 50% | Non-Toxic |  | Ki [4]: 4.4 µM; Activity [8]: Active
O=C(O)c1ccc(CN2C(=O)/C(=C/c3ccc(OCCc4ccccc4)cc3)SC2=S)cc1 | Non-Toxic | Active | 3.5 µM |  | Active | Toxic | inactive | Non-Toxic |  |  |  |  | Toxic | 75 to 100% | inhibition [16]: Active
O=C(O)c1ccc(CN2C(=O)/C(=C/c3cccc(Oc4ccccc4)c3)SC2=S)cc1 | Non-Toxic | Active | 7.1 µM |  | Active | Non-Toxic | inactive | Non-Toxic |  | Active |  |  | Non-Toxic | 75 to 100% | inhibition [18]: Active
O=C(O)c1ccc(CN2C(=O)/C(=C/c3cccc(OCc4ccccc4)c3)S/C2=N\c2ccc(F)cc2)cc1 | Non-Toxic |  | 4.2 µM | Active |  |  | Active | Non-Toxic | Active |  | inactive | 10 to 50% | Toxic |  | Ki [19]: 1.5 µM
O=C(O)c1ccc(CN2C(=O)/C(=C/c3cccc(OCc4ccccc4)c3)SC2=S)cc1 | Non-Toxic | Active | 5.7 µM |  | Active | Non-Toxic | inactive | Non-Toxic |  | Active |  |  | Non-Toxic | 75 to 100% | inhibition [16]: Active
O=C(O)c1ccc(CN2C(=O)/C(=C/c3cccc(OCCc4ccccc4)c3)S/C2=N\c2ccc(F)cc2)cc1 | Non-Toxic |  | 14.5 µM | Active |  |  |  | Non-Toxic |  |  | inactive | 10 to 50% | Toxic |  | Ki [19]: 2.3 µM
O=C(O)c1ccc(CN2C(=O)/C(=C/c3ccc(Oc4ccccc4)cc3)SC2=S)cc1 | Non-Toxic | inactive | 10.6 µM |  | Active | Non-Toxic | inactive | Non-Toxic |  | Active |  |  | Non-Toxic | 75 to 100% | inhibition [18]: Active
O=C(O)c1ccc(CN2C(=O)/C(=C/c3cccc(OCCc4ccccc4)c3)SC2=S)cc1 | Non-Toxic | Active | 1.9 µM |  | Active | Toxic | inactive | Non-Toxic |  | Active |  |  | Toxic | 75 to 100% | inhibition [20]: Active
O=C(O)c1ccc(CN2C(=O)/C(=C/c3ccc(Oc4ccccc4)cc3)S/C2=N\c2ccc(F)cc2)cc1 | Non-Toxic |  | 5.1 µM | Active |  |  |  | Non-Toxic | Active |  | Active | 10 to 50% | Toxic |  | Ki [4]: 9.9 µM; inhibition [21]: inactive; inhibition [22]: Tde
O=C(O)c1ccc(CN2C(=O)/C(=C/c3ccc(OCc4ccccc4)cc3)SC2=S)cc1 | Non-Toxic | Active | 5 µM |  | Active | Non-Toxic | inactive | Non-Toxic |  | Active |  |  | Non-Toxic | 75 to 100% | inhibition [23]: Active
O=C(O)c1ccc(CN2C(=O)/C(=C/c3ccc(OCCc4ccccc4)cc3)S/C2=N\c2ccc(F)cc2)cc1 | Non-Toxic |  | 1.5 µM | Active |  |  |  | Non-Toxic |  |  | inactive | 10 to 50% | Toxic |  | Ki [19]: 1 µM
O=C(O)c1ccc(CN2C(=O)/C(=C/c3ccc(OCc4ccccc4)cc3)S/C2=N\c2ccc(F)cc2)cc1 | Non-Toxic |  | 1.9 µM | Active |  |  | Active | Non-Toxic | Active |  | inactive |  | Toxic | 75 to 100% | Ki [4]: 1.4 µM
